Experimental data published in the supplement of paper PMC11061612.

Columns and labels:
[1] = test system: KP-4 (Pancreatic Carcinoma); test: Bliss excess, mean over the matrix (fraction); higher = more synergy
How it was run: (§1)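 Cell lines in DMEM/F12 or RPMI with 10% FBS were plated in 1536-well plates, held 24 hours at 37°C, 5% CO2, then given two-drug dose matrices for 72 hours (DMSO typically 0.2%). Viability was read by CellTiter-Glo 2.0 luminescence and scaled as inhibition from 0 (vehicle wells) to 1 (blank wells). Combination Emax is the second-highest inhibition in the matrix; Bliss excess is observed combination effect minus expected EA + EB − EA·EB, EA and EB being single-agent effects.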

[2] = test system: BxPC-3 (Pancreatic Carcinoma); test: combination Emax (second highest fraction inhibited in the dose matrix, 72 h); higher = more inhibition; extreme values may be limits of the assay
How it was run: as §1

ES6 (Ewing's Sarcoma) = test: as above
How it was run: as §1

GAK (Melanoma) = test: as above
How it was run: as §1

[3] = test system: IA-LM (Non-Small Cell Lung Carcinoma); test: as above
How it was run: as §1

[4] = test system: KP-4 (Pancreatic Carcinoma); test: as above
How it was run: as §1

[5] = test system: LCLC-103H (Non-Small Cell Lung Carcinoma); test: as above
How it was run: as §1

[6] = test system: MDA-MB-415 (Breast Carcinoma); test: as above
How it was run: as §1

[7] = test system: MONO-MAC-6 (Acute Myeloid Leukemia); test: as above
How it was run: as §1

NCI-H226 (Mesothelioma) = test: as above
How it was run: as §1

[8] = test system: NCI-H3118 (Head and Neck Carcinoma); test: as above
How it was run: as §1

[9] = test system: RCC-JW (Kidney Carcinoma); test: as above
How it was run: as §1

[10] = test system: SK-CO-1 (Colorectal Carcinoma); test: as above
How it was run: as §1

[11] = test system: T84 (Colorectal Carcinoma); test: as above
How it was run: as §1
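For Bliss excess, mean over the matrix in this document: after 72 h of two-drug dosing.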

O=C(c1cc(Cc2n[nH]c(=O)c3ccccc23)ccc1F)N1CCN(C(=O)C2CC2)CC1 [Olaparib] + Cc1c2c(nn1C)CSCc1cc(n(C)n1)CSc1cc(c3ccccc3c1)OCCCc1c(C(=O)O)n(C)c3c-2c(Cl)ccc13 [AZD5991] (first compound max 10 µM, 7x7, partner max 1 µM)
Bliss excess [1]: -0.0386
combination Emax [2]: 0.043
combination Emax (ES6 (Ewing's Sarcoma)): 0.168
combination Emax (GAK (Melanoma)): 0.0885
combination Emax [3]: 0.0022
combination Emax [4]: 0.113
combination Emax [5]: 0.192
combination Emax [6]: 0.339
combination Emax [7]: 0.993
combination Emax (NCI-H226 (Mesothelioma)): 0.107
combination Emax [8]: 0.352
combination Emax [9]: 0.163
combination Emax [10]: 0.785
combination Emax [11]: 0.111

CC1(C)CCC(CN2CCN(c3ccc(C(=O)NS(=O)(=O)c4ccc(NCC5CCOCC5)c([N+](=O)[O-])c4)c(Oc4cnc5[nH]ccc5c4)c3)CC2)=C(c2ccc(Cl)cc2)C1 [Venetoclax] + CS(=O)(=O)CCNCc1ccc(-c2ccc3ncnc(Nc4ccc(OCc5cccc(F)c5)c(Cl)c4)c3c2)o1 [Lapatinib] (first compound max 1 µM, 7x7, partner max 10 µM)
Bliss excess [1]: -0.0168
combination Emax [2]: 0.244
combination Emax (ES6 (Ewing's Sarcoma)): 0.585
combination Emax (GAK (Melanoma)): 0.229
combination Emax [3]: 0.207
combination Emax [4]: 0.0862
combination Emax [5]: 0.208
combination Emax [6]: 0.242
combination Emax [7]: 0.353
combination Emax (NCI-H226 (Mesothelioma)): 0.113
combination Emax [8]: 0.468
combination Emax [9]: 0.967
combination Emax [10]: 0.345
combination Emax [11]: 0.25

C[C@@H](Nc1cc(F)cc(F)c1)c1cc(C(=O)N(C)C)cc2c(=O)cc(N3CCOCC3)oc12 [AZD8186] + CC(=O)c1c(C)c2cnc(Nc3ccc(N4CCNCC4)cn3)nc2n(C2CCCC2)c1=O [Palbociclib] (first compound max 10 µM, 7x7, partner max 10 µM)
Bliss excess [1]: 0.0976
combination Emax [2]: 0.347
combination Emax (ES6 (Ewing's Sarcoma)): 0.412
combination Emax (GAK (Melanoma)): 0.448
combination Emax [3]: 0.311
combination Emax [4]: 0.601
combination Emax [5]: 0.476
combination Emax [6]: 0.794
combination Emax [7]: 0.654
combination Emax (NCI-H226 (Mesothelioma)): 0.297
combination Emax [8]: 0.568
combination Emax [9]: 0.588
combination Emax [10]: 0.749
combination Emax [11]: 0.235

Cc1nc(-c2cn3c(n2)-c2ccc(-c4cnn(C(C)(C)C(N)=O)c4)cc2OCC3)n(C(C)C)n1 [Taselisib] + O=C(Nc1ccc2[nH]nc(-c3ccncc3)c2c1)[C@@H]1CCN(CC(=O)N2CCN(c3ccc(-c4ncccn4)cc3)CC2)C1 [SCH772984] (first compound max 10 µM, 7x7, partner max 5 µM)
Bliss excess [1]: 0.215
combination Emax [2]: 0.956
combination Emax (ES6 (Ewing's Sarcoma)): 0.639
combination Emax (GAK (Melanoma)): 0.944
combination Emax [3]: 0.399
combination Emax [4]: 0.776
combination Emax [5]: 0.472
combination Emax [6]: 0.846
combination Emax [7]: 0.964
combination Emax (NCI-H226 (Mesothelioma)): 0.393
combination Emax [8]: 0.931
combination Emax [9]: 0.638
combination Emax [10]: 0.975
combination Emax [11]: 0.96

Cc1cc2ncnn2cc1Nc1ncc2c(n1)n(C1CCOCC1)c(=O)n2C [AZD7648] + COc1cc([C@@H]2c3cc4c(cc3[C@@H](O[C@@H]3O[C@@H]5CO[C@@H](C)O[C@H]5[C@H](O)[C@H]3O)[C@H]3COC(=O)[C@H]23)OCO4)cc(OC)c1O [Etoposide] (first compound max 10 µM, 7x7, partner max 10 µM)
Bliss excess [1]: 0.122
combination Emax [2]: 0.223
combination Emax (ES6 (Ewing's Sarcoma)): 0.36
combination Emax (GAK (Melanoma)): 0.525
combination Emax [3]: 0.28
combination Emax [4]: 0.878
combination Emax [5]: 0.584
combination Emax [6]: 0.483
combination Emax [7]: 1
combination Emax (NCI-H226 (Mesothelioma)): 0.332
combination Emax [8]: 0.768
combination Emax [9]: 0.56
combination Emax [10]: 0.879
combination Emax [11]: 0.398

O=C(c1cc(Cc2n[nH]c(=O)c3ccccc23)ccc1F)N1CCN(C(=O)C2CC2)CC1 [Olaparib] + CC1(C)CCC(CN2CCN(c3ccc(C(=O)NS(=O)(=O)c4ccc(NCC5CCOCC5)c([N+](=O)[O-])c4)c(Oc4cnc5[nH]ccc5c4)c3)CC2)=C(c2ccc(Cl)cc2)C1 [Venetoclax] (first compound max 10 µM, 7x7, partner max 1 µM)
Bliss excess [1]: -0.0331
combination Emax [2]: 0.148
combination Emax (ES6 (Ewing's Sarcoma)): 0.173
combination Emax (GAK (Melanoma)): 0.0703
combination Emax [3]: 0.155
combination Emax [4]: 0.135
combination Emax [5]: 0.155
combination Emax [6]: 0.179
combination Emax [7]: 0.249
combination Emax (NCI-H226 (Mesothelioma)): 0.0963
combination Emax [8]: 0.153
combination Emax [9]: 0.163
combination Emax [10]: 0.769
combination Emax [11]: 0.065

O=C(c1cc(Cc2n[nH]c(=O)c3ccccc23)ccc1F)N1CCN(C(=O)C2CC2)CC1 [Olaparib] + CN(CC[C@H](CSC1=CC=CC=C1)NC2=C(C=C(C=C2)S(=O)(=O)NC(=O)C3=CC=C(C=C3)N4CCC(CC4)[C@H](C5=CC=CC=C5C6=CC=C(C=C6)Cl)O)S(=O)(=O)C(F)(F)F)CCO [AZD4320] (first compound max 10 µM, 7x7, partner max 1 µM)
Bliss excess [1]: -0.0113
combination Emax [2]: 0.148
combination Emax (ES6 (Ewing's Sarcoma)): 0.237
combination Emax (GAK (Melanoma)): 0.146
combination Emax [3]: 0.328
combination Emax [4]: 0.155
combination Emax [5]: 0.224
combination Emax [6]: 0.553
combination Emax [7]: 0.431
combination Emax (NCI-H226 (Mesothelioma)): 0.105
combination Emax [8]: 0.155
combination Emax [9]: 0.787
combination Emax [10]: 0.949
combination Emax [11]: 0.122

C=CCn1c(=O)c2cnc(Nc3ccc(N4CCN(C)CC4)cc3)nc2n1-c1cccc(C(C)(C)O)n1 [AZD1775] + CCc1c2c(nc3ccc(O)cc13)-c1cc3c(c(=O)n1C2)COC(=O)[C@]3(O)CC [SN-38] (first compound max 1 µM, partner max 0.3 µM)
Bliss excess [1]: 0.0054
combination Emax [2]: 0.562
combination Emax (ES6 (Ewing's Sarcoma)): 0.607
combination Emax (GAK (Melanoma)): 0.678
combination Emax [3]: 0.67
combination Emax [5]: 0.709
combination Emax [6]: 0.469
combination Emax [7]: 1
combination Emax (NCI-H226 (Mesothelioma)): 0.366
combination Emax [8]: 0.9
combination Emax [9]: 0.542
combination Emax [10]: 0.898
combination Emax [11]: 0.867
